Measured values published in patent US20240122865A1, “Methods of Protecting RNA” (Pfizer Inc., priority 2021, published 2024).
Several values for one entry are separate records, joined by “and”; a condition that tells them apart may be missing. Identical values can stand only once.

Assays:
Assay type in all cases: biochemical, Trichoderma atroviride
[1] = tested on: FgenL model RNA; assay: TapeStation Assay, FgenL model RNA; design: Conc. FgenL#1 / Conc. FgenL#2: unit not given here; details: for % Control N = 1 / % Control N = 2 / % Control Average: FgenL RNA, 20 mM amino acids, 50 mM CAPS pH 11, 50° C. 15 min; for % Control N = 1 / % Control N = 2: vs Time 0; for Conc. FgenL#1 / Conc. FgenL#2: intact FgenL RNA after 15 min at 50° C.; for Conc. FgenL#1: 20 mM amino acids in 50 mM CAPS pH 11, run #1; for Conc. FgenL#2: 20 mM amino acids in 50 mM CAPS pH 11, run #2; for % Control Average: vs Time 0, Avg N=2
Method: (§1) These assays were performed with amino acids and compared to a no-degradation baseline control to gauge degree of protection imparted by the amino acid. Multiple functional assay approaches were used where differing endpoints were measured including a droplet digital PCR (ddPCR) assay where intact RNA sequence was quantitated, a size exclusion base hydrolysis degradation assay that used a size exclusion column to determine the degree of degradation occurring to an mRNA construct, and finally, a TapeStation assay that utilizes capillary electrophoresis and optical detection to measure intact RNA. […] Affinity selection by mass spectrometry (ASMS), native electrospray ionization mass spectrometry (nESI-MS) and nuclear magnetic resonance (NMR) may be used as several complementary approaches to ascertain compound binding to RNA. The latter techniques utilize MS to measure mass of bound compound alone (ASMS), or mass of RNA and bound compound (nESI-MS). The nESI-MS and NMR studies may be conducted to provide direct analytical quantification of resulting complex via measurement of mass (nESI-MS) or chemical shifts (NMR). The ASMS experiment is conducted to determine saturation binding of the compound to RNA where resulting apparent binding constants (KD,App) may be generated. Further descriptions of the functional and binding assays are provided in the section below.
(§2) In principle, samples are loaded to the instrument where electrophoresis separates component RNA's on the basis of mass, and subsequently analyzes these optically as they travel through the capillary.
(§3) RNA samples were diluted to the appropriate concentration to fall within the linear range of detection for the RNA ScreenTape Assay. Model Chi18 or FgenL RNAs were diluted to 50 ng/μL in 50 mM CAPS buffer pH 11. Amino acid stocks were made up in 50 mM CAPS pH 11 and re-adjusted to >pH 11 after solubilization. […] The samples were aliquoted to PCR tubes for each time point (Time 0 or 15 minutes). Degradation reaction: Samples were incubated at 50° C. for 0 to 15 minutes in a thermocycler, removed at the appropriate time point and placed on ice. Time 0 samples remained on ice.

[2] = tested on: Chi18 model RNA; assay: TapeStation Assay, Chi18 model RNA; design: Conc. chi18#1 / Conc. chi18#2: unit not given here; details: for % Control N = 1 / % Control N = 2 / % Control Avg.: Chi18 RNA, 20 mM amino acids, 50 mM CAPS pH 11, 50° C. 15 min; for % Control N = 1 / % Control N = 2: vs Time 0; for % Control Avg.: vs Time 0, Avg N=2; for Conc. chi18#1 / Conc. chi18#2: intact Chi18 RNA after 15 min at 50° C.; for Conc. chi18#1: 20 mM amino acids in 50 mM CAPS pH 11, run #1; for Conc. chi18#2: 20 mM amino acids in 50 mM CAPS pH 11, run #2
Method: as §1, §2, §3

[3] = tested on: Chi18 mRNA construct; assay: Size Exclusion Base Hydrolysis Degradation Assay, Chi18; details: for T0 R1 peak area at 250 nm: Chi18 0.1 mg/mL, 25 mM amino acid, 50 mM CAPS, T=0, replicate 1; for T2 Avg, peak area as percentage of T=0 / T2 R1 peak area at 250 nm / T10 Avg, peak area as percentage of T=0 / T10 R1 peak area at 250 nm / T24 Avg, peak area as percentage of T=0 / T24 R1 peak area at 250 nm / T0 Avg, peak area as percentage of T=0: Chi18, 25 mM amino acid; for T2 Avg, peak area as percentage of T=0 / T2 R1 peak area at 250 nm / T10 Avg, peak area as percentage of T=0 / T10 R1 peak area at 250 nm / T24 Avg, peak area as percentage of T=0 / T24 R1 peak area at 250 nm: 50 mM CAPS pH 11, room temperature; for T2 Avg, peak area as percentage of T=0 / T2 R1 peak area at 250 nm: 2 hrs; for T2 R1 peak area at 250 nm / T10 R1 peak area at 250 nm / T24 R1 peak area at 250 nm: replicate 1; for T10 Avg, peak area as percentage of T=0 / T10 R1 peak area at 250 nm: 10 hrs; for T24 Avg, peak area as percentage of T=0 / T24 R1 peak area at 250 nm: 24 hrs; for T0 Avg, peak area as percentage of T=0: T=0 (reference)
Method: Basic assay procedure: RNA samples were diluted to 1.0 mg/mL in DNAase/RNAase free water. Amino acids were dissolved in water to a stock solution of 100 mM and a solution of 500 mM CAPS pH 11 was used. The two mRNA constructs tested were FgenL and Chi18. Each individual sample volume was 50 μL. To determine the amount of 1 M NaOH needed to adjust the final pH to 11.0 after the addition of all sample components, the sample volume was increased 100 fold (5 mL), the volume of 1 M NaOH recorded and this value was translated back down to the 50 μL sample volume.
The mRNA and amino acid were allowed to incubate for one hour prior to the addition of CAPS pH 11. All steps of the assay were conducted at room temperature.
Degradation reaction: After the CAPS addition, the samples were injected onto the Waters H-Class UPLC system to record the first timepoint, T=O. This resulting chromatogram was processed by integrating the area of absorbance at 250 nm for the mRNA construct. Immediately following this timepoint, the pH was adjusted to 11. Subsequent time points (2 hrs, 10 hrs, and 24 hrs) recorded the Absorbance Units (peak area) at 250 nm as a percentage of the peak area determined at T=O. Integration of the chromatogram for subsequent timepoints was conducted by analyzing the area of absorbance at 250 nm contained within the same time window in which the peak eluted in T=0 for the 100% intact mRNA.

[4] = target: Chi18 model RNA; assay: Droplet Digital Polymerase Chain Reaction (ddPCR) Assay, Chi18; details: percent protection, pH 11.0, 30° C., 16 hours, n = 2
Method: The ddPCR assays measure RNA integrity by converting intact RNA to cDNA by reverse transcription, then performing digital PCR in thousands of nanoliter-sized droplets for each sample. PCR is performed within each droplet, which allows for more sensitive detection of subtle changes in RNA concentration compared to traditional PCR or qPCR. Additionally, primers/probes specific to the 5′ end of the RNA/cDNA transcript(s) are used to assess fragment integrity—e.g. degraded RNA will have fewer 5′ positive droplets. The BioRad QX200 Droplet Digital PCR System was used for the ddPCR workflow.
Basic assay procedure: RNA samples (Chi18 or FgenL fragments) were diluted to 25 fg/μL or 10 fg/μL, respectively, in 50 mM […] buffer pH 11.0. Amino acid stocks were made up in 50 mM CAPS buffer, pH 11.0 and subsequently re-adjusted to pH 11.0, post solubilization. Amino acid stocks were tested in a dose-response format to determine EC50. An amino acid dilution plate containing a ˜300 mM (or appropriate) top-concentration of amino acid in 50 mM CAPS buffer was serially (half-log) diluted for 10 times. 0.6 μL of this compound dilution plate was spotted into a 96-well PCR plate (Thermo). Sample RNAs were added (6 μL) and incubated with test amino acid as described below.
Degradation reaction: Treated RNAs were incubated for 16 hours at 30° C. for Chi18 samples or 44° C. for FgenL samples. Upon completion of the degradation reaction, cDNA was made from the intact RNA by Reverse Transcription and ddPCR run for each sample (96 well plates). Positive 5′ droplet values were divided by the total accepted droplet values for each sample and a ratio value generated for each sample.
EC50 was determined by using a four parameter logistic equation: Y=A+((B−A)/(1+(C/X)D)); where Y is percent protection, X is compound concentration, A and B are minimum and maximum asymptotes, respectively, C is EC50, and D is Hill slope.

| SMILES | % Control N = 1 [1] [%] | % Control N = 2 [1] [%] | Conc. FgenL#1 [1] | Conc. FgenL#2 [1] | % Control N = 1 [2] [%] | % Control N = 2 [2] [%] | % Control Avg. [2] [%] | Conc. chi18#1 [2] | Conc. chi18#2 [2] | T0 R1 peak area at 250 nm [3] | T2 Avg, peak area as percentage of T=0 [3] [%] | T2 R1 peak area at 250 nm [3] | T10 Avg, peak area as percentage of T=0 [3] [%] | T10 R1 peak area at 250 nm [3] | T24 Avg, peak area as percentage of T=0 [3] [%] | T24 R1 peak area at 250 nm [3] | T0 Avg, peak area as percentage of T=0 [3] [%] | EC50 [4] [mM] | % Control Average [1] [%] | other results |
| --- | --- | --- | --- | --- | --- | --- | --- | --- | --- | --- | --- | --- | --- | --- | --- | --- | --- | --- | --- | --- |
| C[C@H](N)C(=O)O [Alanine] | 28.8 | 23.2 | 9.93 | 8.05 | 35.3 | 51.4 | 43.3 | 18.8 | 27.2 | 19606 | 71.6 | 13211 | 18.1 | 2730 | 0.0 | 0 | 100.0 | > 30 |  |  |
| N=C(N)NCCC[C@H](N)C(=O)O [Arginine] | 4.2 | 3.3 | 1.46 | 1.15 | 5.2 | 4.7 | 4.9 | 2.78 | 2.46 | 20698 | 76.7 | 15655 | 0.0 | 0 | 0.0 | 0 | 100.0 | 7.6 | 3.8 |  |
| NC(=O)C[C@H](N)C(=O)O [Asparagine] | 21.9 | 15.0 | 7.56 | 5.19 | 21.0 | 26.7 | 23.8 | 11.2 | 14.1 | 25494 | 62.7 | 12115 | 0.0 | 0 | 0.0 | 0 | 100.0 | 4.9 | 18.4 |  |
| N[C@@H](CC(=O)O)C(=O)O [Aspartic acid] | 107.0 | 91.1 | 36.9 | 31.6 | 52.5 | 53.5 | 53.0 | 28 | 28.3 | 11079 | 69.4 | 7643 | 0.0 | 0 | 0.0 | 0 | 100.0 | 6.1 | 99.0 |  |
| N[C@@H](CS)C(=O)O [Cysteine] | 4.9 | 5.9 | 1.7 | 2.05 | 4.5 | 3.5 | 4.0 | 2.39 | 1.85 |  |  |  | 0.0 | 0 | 0.0 | 0 | 100.0 | > 30 | 5.4 | T0 R1 peak area at 250 nm ([3]; listed as Cys): 39458 and 20358; T2 R1 peak area at 250 nm ([3]; listed as Cys): 25387 and 14715; T2 Avg, peak area as percentage of T=0 ([3]; listed as Cys): 60.4% and 61.4% |
| N[C@@H](CCC(=O)O)C(=O)O [Glutamic acid] | 89.9 | 76.1 | 31 | 26.4 | 76.0 | 94.5 | 85.3 | 40.5 | 50 | 19221 | 92.8 | 16514 | 151.2 | 6324 |  | 0 | 100.0 | 6.7 | 83.0 |  |
